According to patent publication US10829458B2 (Araxes Pharma LLC, priority 2015, dated 2020):

Target: T1, KRAS G12C 1-169, his-tagged protein, GDP-loaded (Homo sapiens, UniProt P01116, G12C)
T1 construct: KRAS G12C 1-169, his-tagged protein, GDP-loaded
Assay: Biochemical assay: covalent modification of KRAS G12C measured by mass spectrometry (RapidFire/TOF or Q-Exactive)
Conditions: covalent binding to KRAS G12C; compounds of structure (I)
Outline: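 GDP-loaded his-tagged KRAS G12C 1-169 at 2 μM in 20 mM Hepes, 150 mM NaCl, 1 mM MgCl2 incubated at room temperature with compound (10, 30 or 100 μM final, 2% DMSO) for 30 min, 2 h or 24 h, then quenched with formic acid. Intact-protein LC-MS (RapidFire/TOF or Q-Exactive) with deconvolution quantified modified versus unmodified protein.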

Question: With `C=CC(=O)N1CCN(c2nc(OCCCN3CCC(F)(F)C3)nc3c(F)c(-c4c(O)cccc4F)c(Cl)cc23)CC1` [Example I-62, 1-(4-(6-chloro-2-(3-(3,3-difluoro-pyrrolidin-1-yl)propoxy)-8-fluoro-7-(2-fluoro-6-hydroxyphenyl)quinazolin-4-yl)piperazin-1-yl) prop-2-en-1-one] as the molecule, how does the Binding % read?
Answer: The Binding % was “+++ (+++ indicates binding activity greater than 90%)”.

Question: Which Binding % does the source give for `C=C(F)C(=O)N1CCN(c2nc(OCCN3CCOCC3)nc3c(F)c(-c4c(O)cccc4F)c(Cl)cc23)CC1` [Example I-60, 1-(4-(6-chloro-8-fluoro-7-(2-fluoro-6-hydroxyphenyl)-2-(2-morpholino-ethoxy)quinazolin-4-yl)piperazin-1-yl)-2-fluoroprop-2-en-1-one] here?
Answer: Its Binding % is “++ (++ indicates binding activity from 50 to 90%)”.

Question: How did the Binding % turn out when `C=CC(=O)N1CCN(c2nc(NC3CCN(c4ncccn4)CC3)nc3c(F)c(-c4c(C)ccc5[nH]ncc45)c(Cl)cc23)CC1` [Example I-184, 1-(4-(6-chloro-8-fluoro-7-(5-methyl-1H-indazol-4-yl)-2-((1-(pyrimidin-2-yl)piperidin-4-yl)amino)quinazolin-4-yl)piperazin-1-yl) prop-2-en-1-one] was run?
Answer: The Binding % was “+ (+ indicates binding activity up to 50%)”.

Question: Which Binding % does the source give for `C=CC(=O)N1CCN(c2nc(OCc3ncccn3)nc3c(F)c(-c4c(O)cccc4F)c(Cl)cc23)CC1` [Example I-105, 1-(4-(6-chloro-8-fluoro-7-(2-fluoro-6-hydroxyphenyl)-2-(pyrimidin-2-ylmethoxy)quinazolin-4-yl)piperazin-1-yl) prop-2-en-1-one] here?
Answer: Its Binding % is “+++ (+++ indicates binding activity greater than 90%)”.

Question: With `C=CC(=O)N1CCN(c2nc(OCCN3CCOCC3)nc3c(F)c(-c4c(F)cccc4OC)c(Cl)cc23)CC1` [Example I-39, 1-(4-(6-chloro-8-fluoro-7-(2-fluoro-6-methoxyphenyl)-2-(2-morpholino-ethoxy)quinazolin-4-yl)piperazin-1-yl)prop-2-en-1-one] as the molecule, how does the Binding % read?
Answer: Its Binding % is “+++ (+++ indicates binding activity greater than 90%)”.

Question: `C=CC(=O)N1CCN(c2nc(NCCP(C)(C)=O)nc3c(F)c(-c4c(O)cccc4F)c(Cl)cc23)CC1` [Example I-208, 1-(4-(6-chloro-2-(2-(dimethyl-phosphoryl)ethylamino)-8-fluoro-7-(2-fluoro-6-hydroxyphenyl)quinazolin-4-yl)piperazin-1-yl) prop-2-en-1-one] was tested. Which Binding % did it give?
Answer: Its Binding % is “++ (++ indicates binding activity from 50 to 90%)”.

Question: Which Binding % does the source give for `C=CC(=O)N1CCN(c2nc(NC3CCN(C4CC4)CC3)nc3c(F)c(-c4c(O)cccc4F)c(Cl)cc23)CC1` (atropisomer, axis not shown) [Example I-78, (S)-1-(4-(6-chloro-2-(1-cyclopropyl-piperidin-4-ylamino)-8-fluoro-7-(2-fluoro-6-hydroxyphenyl)quinazolin-4-yl)piperazin-1-yl)prop-2-en-1-one] here?
Answer: The Binding % was “+++ (+++ indicates binding activity greater than 90%)”.

Question: How did the Binding % turn out when `C=CC(=O)N1CCN(c2nc(OC3CCN(C)CC3)nc3c(F)c(-c4c(O)cccc4F)c(Cl)cc23)CC1` [Example I-92, 1-(4-(6-chloro-8-fluoro-7-(2-fluoro-6-hydroxyphenyl)-2-(1-methyl-piperidin-4-yloxy)quinazolin-4-yl)piperazin-1-yl)prop-2-en-1-one] was run?
Answer: The Binding % was “+++ (+++ indicates binding activity greater than 90%)”.

Question: `C=CC(=O)N1CCN(c2nc(OCc3cnc(OC)nc3)nc3c(F)c(-c4c(O)cccc4F)c(Cl)cc23)CC1` [Example I-118, 1-(4-(6-chloro-8-fluoro-7-(2-fluoro-6-hydroxyphenyl)-2-((2-methoxy-pyrimidin-5-yl)methoxy)quinazolin-4-yl)piperazin-1-yl) prop-2-en-1-one] was tested. Which Binding % did it give?
Answer: The Binding % was “+++ (+++ indicates binding activity greater than 90%)”.

Question: How did the Binding % turn out when `C=CC(=O)N1CCN(c2nc(NC3CCOCC3)nc3c(F)c(-c4cc(O)cc5ccccc45)c(Cl)cc23)CC1` [Example I-69, 1-(4-(6-chloro-8-fluoro-7-(3-hydroxy-naphthalen-1-yl)-2-(tetrahydro-2H-pyran-4-ylamino)quinazolin-4-yl)piperazin-1-yl)prop-2-en-1-one] was run?
Answer: Its Binding % is “+++ (+++ indicates binding activity greater than 90%)”.

Question: `C=CC(=O)N1CCN(c2nc(N)nc3c(F)c(-c4c(O)cccc4F)c(Cl)cc23)CC1` [Example I-175, 1-(4-(2-amino-6-chloro-8-fluoro-7-(2-fluoro-6-hydroxyphenyl)quinazolin-4-yl)piperazin-1-yl) prop-2-en-1-one] was tested. Which Binding % did it give?
Answer: The Binding % was “++ (++ indicates binding activity from 50 to 90%)”.

Question: How did the Binding % turn out when `C=CC(=O)N1CCN(c2nc(OCC(=O)N(C)C)nc3c(F)c(-c4c(C)ccc5[nH]ncc45)c(Cl)cc23)CC1` [Example I-4, 2-(4-(4-acryloylpiperazin-1-yl)-6-chloro-8-fluoro-7-(5-methyl-1H-indazol-4-yl)quinazolin-2-yloxy)-N,N-dimethyl-acetamide] was run?
Answer: Its Binding % is “++ (++ indicates binding activity from 50 to 90%)”.

Question: Which Binding % does the source give for `C=CC(=O)N1CCN(c2nc(NCCN(CC)CC)nc3c(F)c(-c4c(O)cccc4F)c(Cl)cc23)CC1` [Example I-151, l-(4-(6-chloro-2-(2-(diethyl-amino)ethylamino)-8-fluoro-7-(2-fluoro-6-hydroxyphenyl)quinazolin-4-yl)piperazin-1-yl) prop-2-en-1-one] here?
Answer: The Binding % was “+++ (+++ indicates binding activity greater than 90%)”.

Question: How did the Binding % turn out when `C=CC(=O)N1CCN(c2nc(NC3CCN(CC(F)(F)F)CC3)nc3c(F)c(-c4c(C)ccc5[nH]ncc45)c(Cl)cc23)CC1` [Example I-12, 1-(4-(6-chloro-8-fluoro-7-(5-methyl-1H-indazol-4-yl)-2-(1-(2,2,2-trifluoroethyl)piperidin-4-ylamino)quinazolin-4-yl)piperazin-1-yl)prop-2-en-1-one] was run?
Answer: The Binding % was “++ (++ indicates binding activity from 50 to 90%)”.

Question: With `C=CC(=O)N1CCN(c2nc(OCCO)nc3c(F)c(-c4cc(O)cc5ccccc45)c(Cl)cc23)CC1` [Example I-83, 1-(4-(6-chloro-8-fluoro-2-(2-hydroxyethoxy)-7-(3-hydroxy-naphthalen-1-yl)quinazolin-4-yl)piperazin-1-yl)prop-2-en-1-one] as the molecule, how does the Binding % read?
Answer: The Binding % was “+++ (+++ indicates binding activity greater than 90%)”.

Same assay, conditions: covalent binding to KRAS G12C; compounds of structure (II)

Question: For `C=CC(=O)N1CCCN(c2ncnc3c(F)c(-c4c(O)cccc4F)c(Cl)cc23)CC1` [II-7, 1-(4-(6-chloro-8-fluoro-7-(2-fluoro-6-hydroxyphenyl)quinazolin-4-yl)-1,4-diazepan-1-yl)prop-2-en-1-one], which Binding % is on record?
Answer: The Binding % was “+ (+ indicates binding activity up to 50%)”.

Same assay, conditions: covalent binding to KRAS G12C; compounds of structure (III)

Question: For `C=CC(=O)N1CCN(c2ncnc3c(F)c(-c4c(O)cccc4F)c(Cl)cc23)CC1C(F)F` (stereo not shown) [III-19, 1-(4-(6-chloro-8-fluoro-7-(2-fluoro-6-hydroxy-phenyl)quinazolin-4-yl)-2-(difluoro-methyl)piperazin-1-yl)prop-2-en-1-one], which Binding % is on record?
Answer: The Binding % was “+++ (+++ indicates binding activity greater than 90%)”.

Question: How did the Binding % turn out when `C=CC(=O)N1CCN(c2ncnc3c(F)c(-c4c(O)cccc4F)c(Cl)cc23)CC1(C)C` [III-7, 1-(4-(6-chloro-8-fluoro-7-(2-fluoro-6-hydroxy-phenyl)quinazolin-4-yl)-2,2-dimethyl-piperazin-1-yl)prop-2-en-1-one] was run?
Answer: The Binding % was “+ (+ indicates binding activity up to 50%)”.

Question: For `C=CC(=O)N1C(C)CN(c2ncnc3c(F)c(-c4c(O)cccc4F)c(Cl)cc23)CC1C` (stereo not shown) [III-9, 1-(4-(6-chloro-8-fluoro-7-(2-fluoro-6-hydroxy-phenyl)quinazolin-4-yl)-2,6-dimethyl-piperazin-1-yl)prop-2-en-1-one], which Binding % is on record?
Answer: Its Binding % is “++ (++ indicates activity from 50% to 90%)”.
